The values below come from ChEMBL document CHEMBL1201862, “PubChem BioAssay data set” (2004).

Among the test systems are U-251; A498; SR; K562; OVCAR-4; MDA-MB-435; SF-295; IGROV-1; SK-MEL-28; SNB-75; Hs-578T; SK-MEL-5; NCI/ADR-RES; RXF 393; UO-31; HOP-62; ACHN; MOLT-4; EKVX; RPMI-8226.
Holding throughout (assay): NCI tumour cell line growth inhibition, 48 h

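Protocol summary: plate cells (96-well), add compound at 5 concentrations, incubate 48 h, interpolate endpoints linearly. At the GI50, growth is halved.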 The source made the active and inactive calls. Cut-off read from the data, not from the text of the source: active = GI50 up to about 1.1 µM and inactive = higher.

For the molecule `CCOC(=O)CCc1c(C(=O)OCC)[nH]c(/C=C2/NC(=O)C(C)=C2CC)c1C`, the GI50 in the test on U-251 was 11.2 µM (inactive); in the test on A498, 17.1 µM (inactive); in the test with SR, 4.51 µM (inactive); in the test with K562, 0.0494 µM (active); in the test with OVCAR-4 it was 2.9 µM (inactive); in the test on MDA-MB-435, 6.73 µM (inactive). For the same molecule, the GI50 with SF-295 was 11.6 µM (inactive); in the test on IGROV-1 it was 8.38 µM (inactive); with SK-MEL-28, 13.7 µM (inactive); in the test on SNB-75 it was 15.4 µM (inactive); in the test on Hs-578T, 25.1 µM (inactive); in the test on SK-MEL-5, 2.97 µM (inactive). Also, the GI50 in the test with NCI/ADR-RES was 10.4 µM (inactive); in the test on RXF 393, 11.1 µM (inactive); in the test on UO-31, 2 µM (inactive); in the test with HOP-62, 15 µM (inactive); in the test on ACHN it was 11.3 µM (inactive); in the test with MOLT-4, 0.0224 µM (active).
Take `O=C(CN1CCN(c2ccccc2)CC1)c1ccc2[nH]c(=O)oc2c1`: the GI50 is 35.6 µM (inactive) in the test with U-251; > 100 µM (inactive) in the test on A498; > 100 µM (inactive) in the test on SR; > 100 µM (inactive) with K562; > 100 µM (inactive) in the test with EKVX; > 100 µM (inactive) with MDA-MB-435. The GI50 in the test with SF-295 was > 100 µM (inactive); in the test on IGROV-1, > 100 µM (inactive); in the test with SK-MEL-28, > 100 µM (inactive); in the test on SNB-75, > 100 µM (inactive); in the test with Hs-578T it was 70 µM (inactive); in the test on RPMI-8226 it was > 100 µM (inactive). Also, the GI50 is 49.5 µM (inactive) in the test with NCI/ADR-RES; > 100 µM (inactive) with RXF 393; > 100 µM (inactive) in the test with HOP-62; > 100 µM (inactive) in the test on ACHN; > 100 µM (inactive) in the test with MOLT-4.
As to `COc1ccc(CCN2C(=O)C(=O)C(C(=O)c3ccccc3)C2c2ccccc2)cc1OC` (configuration not stated), the GI50 in the test with U-251, with A498, with SR, in the test with K562, in the test with EKVX and with MDA-MB-435 was > 100 µM (inactive) each time. The GI50 is 44.2 µM (inactive) with SF-295; > 100 µM (inactive) with IGROV-1; > 100 µM (inactive) with SK-MEL-28; 41.6 µM (inactive) in the test on Hs-578T; > 100 µM (inactive) with SK-MEL-5; 51.2 µM (inactive) with RPMI-8226. Further, the GI50 in the test with NCI/ADR-RES is 58.6 µM (inactive); in the test on RXF 393, > 100 µM (inactive); with UO-31, > 100 µM (inactive); in the test with HOP-62 it was > 100 µM (inactive); in the test with ACHN it was > 100 µM (inactive); in the test with MOLT-4 it was > 100 µM (inactive).
With `C=CCOn1c(C=C)nc2ccc(C)cc21`, the GI50 in the test with U-251 is 12.5 µM (inactive); in the test on A498, 17.1 µM (inactive); in the test on SR, 7.59 µM (inactive); in the test on K562, 20.6 µM (inactive); with EKVX, 19.4 µM (inactive); in the test on OVCAR-4, 29.3 µM (inactive). The GI50 is 13.6 µM (inactive) in the test on MDA-MB-435; 25.6 µM (inactive) with SF-295; 26.2 µM (inactive) with IGROV-1; 18.7 µM (inactive) with SK-MEL-28; 16 µM (inactive) in the test with SNB-75; 27.2 µM (inactive) in the test on Hs-578T. The GI50 in the test with SK-MEL-5 was 17.5 µM (inactive); with RPMI-8226, 2.95 µM (inactive); in the test on NCI/ADR-RES, 25.9 µM (inactive); in the test with UO-31 it was 13.6 µM (inactive); with HOP-62 it was 17.9 µM (inactive); in the test on ACHN, 20.1 µM (inactive). Besides, in the test on MOLT-4, the GI50 was 8.18 µM (inactive).
